Results on one molecule are retold here after patent publication US20240016875A1, “SHAN-ZHA FOR THE TREATMENT OF DEPRESSION AND ANXIETY DISORDERS” (THE OPEN UNIVERSITY, priority 2020, published 2024).

Entries after “also recorded” stand apart in the source; their conditions may differ.

Holding throughout (type): in vivo
For assay [1], the system named is stressed mice. The assay can be described thus: Tail suspension test (TST), UCMS-stressed mice, Examples 1-3. Particulars: UCMS-stressed male ICR mice; herbs and NHT 30 mg/kg, escitalopram 15 mg/kg i.p., 3 weeks; vs vehicle.
Assay [2] deals with BDNF. The assay can be described thus: BDNF ELISA of hippocampus and PFC, stressed mice. Particulars: UCMS-stressed mice; herbs and NHT 30 mg/kg, escitalopram 15 mg/kg i.p., 3 weeks; vs vehicle. Background: An ELISA detects its analyte on a solid surface through an enzyme-linked reagent.
Description: Crataegus pinnatifida, Triticum aestivum, Lilium brownii and Fructus zizyphi jujuba were purchased as freeze-dried granules (KPC Products, Inc., Irvine, CA, USA). Each herb was dissolved in saline with 1% dimethylsulfoxide (DMSO) to a final concentration of 0.47 mg/ml and injected i.p. individually (30 mg/kg) or with the other components to form the formula (NHT, 30 mg/kg). […] Vehicle treatment included i.p. injection of saline with 1% DMSO. All treatments were carried out for 3 weeks.
Mice were decapitated, and their brains were placed on ice. Serial sections (1 mm wide) were cut onto slides, and tissue punches of the hippocampus and PFC (1.7 mm diameter) were taken. Tissue punches were homogenized in cold extraction buffer (Tris-buffered saline, pH 8.0, with 1% NP-40, 10% glycerol, 5 mM sodium metavanadate, 10 mM PMSF, 100 μg/ml aprotinin and 10 μg/ml leupeptin). Homogenates were acidified with 0.1 M HCl (pH 3.0), incubated at room temperature (22-24° C.) for 15 min, and neutralized (pH 7.6) with 0.1 M NaOH. Homogenates were then microfuged at 7000×g for 10 min. BDNF levels were quantified using sandwich ELISA (R&D systems, Minneapolis, MN, USA) according to the manufacturer's instructions.
The next assay relates to Ckb gene. The experiment in a line: Hippocampal RNA-sequencing, gene expression after UCMS. As to conditions: hippocampus; UCMS mice; Shan-zha 30 mg/kg, escitalopram 15 mg/kg, 3 weeks; vs UCMS-exposed saline treated group. Here is the method: (§1) An Unbiased genome-wide transcriptomic profiling was conducted to reveal alterations in gene expression in the hippocampus induced by treatment. Male ICR mice were subjected to UCMS, after which they were treated with Shan-zha (30 mg/kg), NHT (30 mg/kg), Esciatlopram (15 mg/kg) or saline for 3 weeks. The anxiolytic-like effect of the treatments was verified by EPM. Subsequently, brains were rapidly removed and RNA was isolated from the hippocampus using RNeasy kit (Qiagen). RNA-sequencing (on NGS) and gene expression analysis was conducted. The analysis yielded a wide range of changes in gene expression.
(§2) First, all samples were normalized and clustered in order to verify that there are no noticeable biases based on batches/process/technician/day.. Next, hit maps were generated, in order to observe the global differences between the groups. After which, a PCA analysis was performed to visualize the separation between the samples. Finally, Differential expression analysis with DESE-Q was done, and changes in gene expression of the following genes, which are highly relevant to anxiety, depression or drug-related side effects were followed: […]

A further assay deals with rab11B gene. The description is as above. Particulars: hippocampus; UCMS mice; Shan-zha 30 mg/kg, escitalopram 15 mg/kg, 3 weeks; vs UCMS-exposed saline treated group. Here is the method:
as §1, §2

Assay [3] concerns stressed mice. The experiment in a line: Open Field Test (OFT), UCMS-stressed mice, Example 7. As to conditions: 30 mg/kg (escitalopram 15 mg/kg) i.p., 3 weeks, vs vehicle. The procedure:
Animals. ICR outbred mice (Envigo RMS (Harlen), Israel) are kept in the vivarium of the Open University lab in Hadassah medical center, Jerusalem. Mice are kept on a reversed 12 h light/dark cycle and given ad libitum access to food and water. All experiments are performed during the dark phase under red light (7:00-19:00). All experiments have been approved by the committee for animal care and use according to the NIH guidelines. Drugs. Drugs are dissolved in saline and 1% DMSO to the desired concentration and administered i.p. Herbal mixture and Shan-zha (30 mg/kg) will be prepared by dissolving each component (KPC Products, Inc., CA, USA) to a final concentration of 0.47 mg/ml. […] Unpredictable chronic mild stress (UCMS). Mice are exposed to UCMS for 4 weeks at the age of 4 weeks as previously described. Open Field Test (OFT). This test reflects the conflict between the innate fear that mice have of the central area of the field versus their desire to explore new environments. When anxious, the natural tendency of mice is to prefer staying close to the walls. […] Anxiety-like behavior is expressed as the time the animal spent in the center area of the field (Walsh, R. N. and R. A. Cummins, Psychol Bull, 1976. 83(3): p. 482-504). Locomotor activity are expressed as the percentage of time that the mouse moved in the arena in a velocity above 0.1 pixel/sec.

Assay [4] deals with stressed mice. The assay can be described thus: Tail Suspension Test (TST), UCMS-stressed mice, Example 7. Particulars: 30 mg/kg (escitalopram 15 mg/kg) i.p., 3 weeks, vs vehicle. Here is the method: (§3) Animals. ICR outbred mice (Envigo RMS (Harlen), Israel) are kept in the vivarium of the Open University lab in Hadassah medical center, Jerusalem. Mice are kept on a reversed 12 h light/dark cycle and given ad libitum access to food and water. All experiments are performed during the dark phase under red light (7:00-19:00). All experiments have been approved by the committee for animal care and use according to the NIH guidelines. Drugs. Drugs are dissolved in saline and 1% DMSO to the desired concentration and administered i.p. Herbal mixture and Shan-zha (30 mg/kg) will be prepared by dissolving each component (KPC Products, Inc., CA, USA) to a final concentration of 0.47 mg/ml. […] Unpredictable chronic mild stress (UCMS). Mice are exposed to UCMS for 4 weeks at the age of 4 weeks as previously described. Tail Suspension Test (TST). This test is based upon the evaluation of immobility as a measure of behavioral despair and are performed as previously described. Depressive-like behavior are expressed as the time the mouse was immobile.

Assay [5] deals with stressed mice. The experiment in a line: Forced Swim Test (FST), UCMS-stressed mice, Example 7. As to conditions: 30 mg/kg (escitalopram 15 mg/kg) i.p., 3 weeks, vs vehicle. The procedure:
as §3, with “Forced Swim” for “Tail Suspension”, “(FST).” for “(TST).”, “immobile defined as cessation of limb movements except minor movement necessary to keep the mouse afloat.” for “immobile.”

The subject of assay [6] is BDNF. The assay can be described thus: Hippocampal BDNF levels (ELISA), Example 7. Particulars: stressed mice; 30 mg/kg (escitalopram 15 mg/kg) i.p., 3 weeks; vs vehicle.
Description: Assessment of brain BDNF levels. Tissues are homogenized in cold extraction buffer (Tris-buffered saline, pH 8.0, with 1% NP-40, 10% glycerol, 5 mM sodium metavanadate, 10 mM PMSF, 100 mg/ml aprotinin and 10 mg/ml leupeptin). Homogenates are acidified with 0.1 M HCl (pH 3.0), incubated at room temperature (22-24° C.) for 15 min, and neutralized with 0.1 M NaOH (pH 7.6). Homogenates are then microfuged at 7,000 g for 10 min. BDNF levels in the supernatant are evaluated using sandwich ELISA.

As to `CN(C)CCC[C@@]1(c2ccc(F)cc2)OCc2cc(C#N)ccc21` [escitalopram], the “time spent immobile in the TST (depressive-like behavior)” value with stressed mice [1] is on record as “spent less time immobile in comparison with vehicle-treated mice; also recorded: reduced depressive-like behavior in the Tail suspension test (TST) compared to vehicle”. In the assay with BDNF [2], the “BDNF levels in the PFC” value is reported as “elevations in BDNF levels in the PFC compared to vehicle-treated mice; also recorded: elevated BDNF levels in the PFC compared to vehicle” and the “hippocampal BDNF levels” value was “elevations in hippocampal BDNF levels compared to vehicle-treated mice; also recorded: elevated hippocampal BDNF levels compared to vehicle”. Moreover, the Ckb gene expression in the assay with Ckb gene is listed as 0.83 fold change. In the assay on rab11B gene, this molecule came in with an RAB11b gene expression of 0.77 fold change. Further, the “anxiety-like behavior in the OFT” value with stressed mice [3] is reported as “exhibited reduced anxiety-like behavior in the OFT compared to vehicle-treated stressed mice”. Further, the “depressive-like behavior in the TST” value in the assay on stressed mice [4] was “exhibited reduced depressive-like behavior in the TST compared to vehicle-treated stressed mice”. Besides, the “depressive-like behavior in the FST” value in the assay with stressed mice [5] was “exhibited reduced depressive-like behavior in the FST compared to vehicle-treated stressed mice”. Further, in the assay on BDNF [6], the “hippocampal BDNF levels” value is recorded as “Significant elevations in hippocampal BDNF levels”.
